Tested on: FICDs (c-FMS intracellular fragments)
Experiment: FICD generation in M-CSF-cultured human CD14+ cells, immunoblot of whole lysates
Format: cell-based
Details: MDL28170 treatment
Experimental: FIGS. 8A-8I show c-FMS expression in synovial macrophages. (A) The levels of M-CSF in synovial fluids from patients with rheumatoid arthritis (RA, n=13) and osteoarthritis (OA, n=8) were measured. (B) Mass spectrometry analysis for proteins from ˜50 kDa bands (red box) identified c-FMS as one of top genes. An image of coomassie blue stained genes showing immunoprecipitated cells lysates with either anti-DDK-tag antibodies or IgG control. (C-G) Human CD14+ cells were cultured with M-CSF (20ng/ml). Immunoblot of c-FMS with different antibodies against C-terminal of c-FMS; (C) C-20, (D) D-8, and (E) #3152. Immunoblot of c-FMS with different antibodies against N-terminal of c-FMS; (F) #61701, (G) H-300. (H-I) Human CD14+ cells were cultured with M-CSF (20 ng/ml) for 8 hours to induce early signals, and then BB94 (10 uM) was added for 2 days. (H) Immunoblot with anti c-FMS and α-tubulin antibodies in whole lysates (n=3). (I) Soluble c-FMS was detected by ELISA (n=3). […] All data are shown as mean±SEM. *; p<0.05 significant by two-tailed, paired t-test (A and I). M: mature form, I: immature form, H: hgh mass, L: low mass.
FIGS. 10A-10F show calpain regulates FICD generation. (A and B) Human CD14+ cells were cultured with M-CSF (20 ng/ml) for 8 hours to induce early signals and then (A) MDL 28170(0, 1, 2, 5 uM) or (B) PD150606 (0, 2, 5 uM) was added for 2 days. […]

In the case of MDL28170, the L-FICD was “decreased”.

Source: patent US20220370463A1, “STABILIZED C-FMS INTRACELLULAR FRAGMENTS (FICD) PROMOTE OSTEOCLAST DIFFERENTIATION AND ARTHRITIC BONE EROSION” (New York Society for the Relief of the Ruptured and …, priority 2019, published 2022)
